Patent US8318730B2, “Fused hetrocyclic compounds” (Synta Pharmaceuticals Corporation, priority 2003, dated 2012)

Test system: IL-12 production
Test: In vitro assay of Example 12: inhibition of IL-12 production in IFNγ/LPS- or IFNγ/SAC-stimulated cells, ELISA
Format: cell-based, human
Source text: The biological activities of a compound can be evaluated by a number of cell-based assays. One of such assays can be conducted using cells from human peripheral blood mononuclear cells (PBMC) or human monocytic cell line (THP-1). The cells are stimulated with a combination of human interferon-γ (IFNγ) and lipopolysaccharide or a combination of IFNγ and Staphylococcus aureus Cowan I in the presence of a test compound. The level of inhibition of IL-12 production can be measured by determining the amount of p70 by using a sandwich ELISA assay with anti-human IL-12 antibodies. IC50 of the test compound can then be determined. Specifically, PBMC or THP-1 cells are incubated with the test compound. Cell viability was assessed using the bioreduction of MTS [3-(4,5-dimethylthiazol-2-yl)-5-(3-carboxymethoxyphenyl)-2-(4-sulfophenyl)-2H-tetrazolium] (Promega, Madison, Wis.).
Staphylococcus aureus Cowan I (SAC) is obtained from Calbiochem (La Jolla, Calif.), and lipopolysaccharide (LPS, Serratia marscencens) is obtained from Sigma (St. Louis, Mo.). Human and mouse recombinant IFNγ are purchased from Boehringer Mannheim (Mannheim, Germany) and Pharmingen (San Diego, Calif.), respectively.
Human PBMC are isolated by centrifugation using Ficoll-Paque (Pharmacia Biotech, Uppsala, Sweden) and prepared in RPMI medium supplemented with 10% fetal calf serum (FCS), 100 U/mL penicillin, and 100 μg/mL streptomycin. PBMC are plated in wells of a 96-well plate at a concentration of 5×10^5 cells/well, and primed by adding IFNγ (30 U/mL) for 22 h and stimulated by adding LPS (1 μg/mL), or by adding IFNγ (100 U/mL) and then stimulated by adding SAC (0.01%). A test quinazoline compound is dissolved in DMSO, and added to wells of the 96-well plate. The final DMSO concentration is adjusted to 0.25% in all cultures, including the compound-free control. Human THP-1 cells are plated in wells, primed by adding IFNγ (100 U/mL) for 22 h and stimulated by adding SAC (0.025%) in the presence of different concentrations of the quinazoline compound. Cell-free supernatants are taken 18 h later for measurement of cytokines. Cell viability is assessed using the bioreduction of MTS. Cell survival is estimated by determining the ratio of the absorbance in compound-treated groups versus compound-free control.
The supernatant is assayed for the amount of IL-12p40, IL-12p70, or IL-10 by using a sandwich ELISA with anti-human antibodies, i.e., a Human IL-12 p40 ELISA kit from R&D Systems (Berkeley, Calif.), and a Human IL-12 p70 or IL-10 ELISA kit from Endogen (Cambridge, Mass.). Assays are based on the manufacturer's instructions.
The biological activities of quinazoline compounds are tested on human PBMC or THP-1 cells.

[1] = measured in an assay according to Example 12, human PBMC or THP-1 cells
[2] = Homo sapiens, assay of Example 12, if more than one assay was performed, only the most active IC50 result is reported

Molecule | IC50 [2] | also measured
2-Methyl-1-(4-morpholin-4-yl-6-m-tolyl-quinazolin-2-yloxy)-propan-2-ol [Compound 17] |  | IC50 (assay of Example 12, if more than one assay was performed, only the most active IC50 result is reported): 370 nM
COc1cc2nc(N3CCOCC3)nc(NN=Cc3cccc(C)c3)c2cc1OC [Compound 1, N-(6,7-Dimethoxy-2-morpholin-4-yl-quinazolin-4-yl)-N′-(3-methyl-benzylidene)-hydrazine] |  | IC50 [1]: 98.8 nM
COc1cc2nc(N3CCOCC3)nc(Nc3ccc4[nH]c(C)c(C)c4c3)c2cc1OC [Compound 2, (6,7-Dimethoxy-2-morpholin-4-yl-quinazolin-4-yl)-(2,3-dimethyl-1H-indol-5-yl)-amine] |  | IC50 [1]: 109 nM
COc1cc2nc(N3CCOCC3)nc(NC(=O)Nc3cccc(C)c3)c2cc1OC [Compound 6, 1-(6,7-dimethoxy-2-morpholin-4-yl-quinazolin-4-yl)-3-m-tolyl-urea] |  | IC50 [1]: 60.5 nM
Cc1cccc(/C=N/Nc2nc(N3CCOCC3)nc3cc(Cl)ccc23)c1 [Compound 8, N-(7-Chloro-2-morpholin-4-yl-quinazolin-4-yl)-N′-(3-methyl-benzylidene)-hydrazine] |  | IC50 [1]: 298 nM
COc1cc2nc(N3CCOCC3)nc(N/N=C/c3cccc(C)c3)c2cc1OCCOc1ccccc1 [Compound 9, N-[7-Methoxy-2-morpholin-4-yl-6-(2-phenoxy-ethoxy)-quinazolin-4-yl]-N′-(3-methyl-benzylidene)-hydrazine] |  | IC50 [1]: 800 nM
Cc1[nH]c2ccc(Nc3nc(N4CCOCC4)nc4ccc([N+](=O)[O-])cc34)cc2c1C [Compound 10, (2,3-Dimethyl-1H-indol-5-yl)-(2-morpholin-4-yl-6-nitro-quinazolin-4-yl)-amine] |  | IC50 [1]: 5000 nM
COc1cc2nc(N3CCOCC3)nc(Nc3cccc(C)c3)c2cc1OC [Compound 11, (6,7-Dimethoxy-2-morpholin-4-yl-quinazolin-4-yl)-m-tolyl-amine] |  | IC50 [1]: 10000 nM
COc1ccc(CCOc2nc(N3CCOCC3)c3cc(-c4cccc(C#N)c4)ccc3n2)cc1OC [Compound 23, 3-{2-[2-(3,4-Dimethoxy-phenyl)-ethoxy]-4-morpholin-4-yl-quinazolin-6-yl}-benzonitrile] | > 10000 nM | 
COc1ccc(CCOc2nc(N3CCOCC3)c3cc(-c4ccc(Cl)cc4)ccc3n2)cc1OC [Compound 30, 6-(4-Chloro-phenyl)-2-[2-(3,4-dimethoxy-phenyl)-ethoxy]-4-morpholin-4-yl-quinazoline] | > 1000 nM | 
COc1ccc(CCOc2nc(N3CCOCC3)c3cc(-c4ccc(F)cc4)ccc3n2)cc1OC [Compound 33, 6-(4-Fluoro-phenyl)-2-[2-(3,4-dimethoxy-phenyl)-ethoxy]-4-morpholin-4-yl-quinazoline] | > 10000 nM | 
COc1ccc(CCOc2nc(N3CCOCC3)c3cc(Oc4cccc(Cl)c4)ccc3n2)cc1OC [Compound 35, 6-(3-Chloro-phenoxy)-2-[2-(3,4-dimethoxy-phenyl)-ethoxy]-4-morpholin-4-yl-quinazoline] | 9900 nM | 

The remaining molecules from weak to strong by IC50 [2], led by results:

IC50 [2] | Molecule | also measured
6910 nM | COc1ccc(CCOc2nc(N3CCOCC3)c3cc(-c4ccccc4)ccc3n2)cc1OC [Compound 19, 2-[2-(3,4-Dimethoxy-phenyl)-ethoxy]-4-morpholin-4-yl-6-phenyl-quinazoline] | 
3040 nM | COc1ccc(CCOc2nc(N3CCOCC3)c3cc(-c4ccc(C)s4)ccc3n2)cc1OC [Compound 22, 2-[2-(3,4-Dimethoxy-phenyl)-ethoxy]-6-(5-methyl-thiophen-2-yl)-4-morpholin-4-yl-quinazoline] | 
3000 nM | c1ccc(Nc2ccc3nc(OCCN4CCOCC4)nc(N4CCOCC4)c3c2)cc1 [Compound 14, [4-Morpholin-4-yl-2-(2-morpholin-4-yl-ethoxy)-quinazolin-6-yl]-phenyl-amine] | 
3000 nM | COc1ccc(CCOc2nc(N3CCOCC3)c3cc(-c4ccc(C(F)(F)F)cc4)ccc3n2)cc1OC [Compound 32, 2-[2-(3,4-Dimethoxy-phenyl)-ethoxy]-4-morpholin-4-yl-6-(4-trifluoromethyl-phenyl)-quinazoline] | 
2600 nM | COc1ccc(CCOc2nc(N3CCOCC3)c3cc(Oc4ccc(C)cc4)ccc3n2)cc1OC [Compound 36, 2-[2-(3,4-Dimethoxy-phenyl)-ethoxy]-4-morpholin-4-yl-6-p-tolyloxy-quinazoline] | 
1820 nM | COCCOc1nc(N2CCOCC2)c2cc(-c3cccc(C)c3)ccc2n1 [Compound 13, 2-(2-Methoxy-ethoxy)-4-morpholin-4-yl-6-m-tolyl-quinazoline] | 
1430 nM | COc1ccc(CCOc2nc(N3CCOCC3)c3cc(-c4cccc(C(N)=O)c4)ccc3n2)cc1OC [Compound 24, 3-{2-[2-(3,4-Dimethoxy-phenyl)-ethoxy]-4-morpholin-4-yl-quinazolin-6-yl}-benzamide] | 
470 nM | COc1ccc(CCOc2nc(N3CCOCC3)c3cc(-c4cc(C)cc(C)c4)ccc3n2)cc1OC [Compound 27, 2-[2-(3,4-Dimethoxy-phenyl)-ethoxy]-6-(3,5-dimethyl-phenyl)-4-morpholin-4-yl-quinazoline] | 
419 nM | COc1ccc(-c2ccc3nc(OCCc4ccc(OC)c(OC)c4)nc(N4CCOCC4)c3c2)cc1 [Compound 31, 2-[2-(3,4-Dimethoxy-phenyl)-ethoxy]-6-(4-methoxy-phenyl)-4-morpholin-4-yl-quinazoline] | 
400 nM | COc1cccc(-c2ccc3nc(OCCc4ccc(OC)c(OC)c4)nc(N4CCOCC4)c3c2)c1 [Compound 25, 2-[2-(3,4-Dimethoxy-phenyl)-ethoxy]-6-(3-methoxy-phenyl)-4-morpholin-4-yl-quinazoline] | 
347 nM | COc1ccc(CCOc2nc(N3CCOCC3)c3cc(Oc4ccccc4Cl)ccc3n2)cc1OC [Compound 34, 6-(2-Chloro-phenoxy)-2-[2-(3,4-dimethoxy-phenyl)-ethoxy]-4-morpholin-4-yl-quinazoline] | 
189 nM | COc1ccc(CCOc2nc(N3CCOCC3)c3cc(-c4cccc(C)c4)ccc3n2)cc1OC [Compound 15, 2-[2-(3,4-Dimethoxy-phenyl)-ethoxy]-4-morpholin-4-yl-6-m-tolyl-quinazoline] | 
162 nM | Cc1cccc(-c2ccc3nc(OCCO)nc(N4CCOCC4)c3c2)c1 [Compound 18, 2-(4-Morpholin-4-yl-6-m-tolyl-quinazolin-2-yloxy)-ethanol] | 
107 nM | COc1ccc(CCOc2nc(N3CCOCC3)c3cc(-c4cccc(C(F)(F)F)c4)ccc3n2)cc1OC [Compound 20, 2-[2-(3,4-Dimethoxy-phenyl)-ethoxy]-4-morpholin-4-yl-6-(3-trifluoromethyl-phenyl)-quinazoline] | 
107 nM | COc1ccc(CCOc2nc(N3CCOCC3)c3cc(-c4ccc(C)c(C)c4)ccc3n2)cc1OC [Compound 26, 2-[2-(3,4-Dimethoxy-phenyl)-ethoxy]-6-(3,4-dimethyl-phenyl)-4-morpholin-4-yl-quinazoline] | 
86 nM | Cc1cccc(-c2ccc3nc(OCCc4ccccn4)nc(N4CCOCC4)c3c2)c1 [Compound 16, 4-Morpholin-4-yl-2-(2-pyridin-2-yl-ethoxy)-6-m-tolyl-quinazoline] | 
64 nM | COc1ccc(CCOc2nc(N3CCOCC3)c3cc(-c4cc5ccccc5o4)ccc3n2)cc1OC [Compound 28, 6-Benzofuran-2-yl-2-[2-(3,4-dimethoxy-phenyl)-ethoxy]-4-morpholin-4-yl-quinazoline] | 
59 nM | COc1ccc(CCOc2nc(N3CCOCC3)c3cc(-c4ccc(C)cc4)ccc3n2)cc1OC [Compound 21, 2-[2-(3,4-Dimethoxy-phenyl)-ethoxy]-4-morpholin-4-yl-6-p-tolyl-quinazoline] | 
